The structures appear in SMILES notation. Structures can show the parent of a compound that is named as a salt.

As to `COc1cc2nc(C)nc(N3CCN(C(=O)Nc4ccc(Oc5ccccc5)cc4)CC3)c2cc1OC` [Compound 391, 4-(6,7-Dimethoxy-2-methyl-4-quinazolinyl)-N-(4-phenoxyphenyl)-1-piperazinecarboxamide], the melting point – broadly, the temperature, or range, at which the solid turns liquid – lay within 146 to 147 °C.

On to `COc1ccc(NC(=O)N2CCN(c3ncnc4cc(OC)c(OC)cc34)CC2)c(OC)c1` [Compound 64, N-(2,4-Dimethoxyphenyl)-4-(6,7-dimethoxy-4-quinazolinyl)-1-piperazinecarboxamide], for which the melting point fell in the range of 187 to 188 °C.

In turn, `COc1cc2ncnc(N3CCN(C(=O)NC(=O)c4ccccc4)CC3)c2cc1OC` [Compound 4, N-Benzoyl-4-(6,7-dimethoxy-4-quinazolinyl)-1-piperazinecarboxamide] had a melting point of 122 to 124 °C.

`Fc1cc2ncnc(N3CCN(C(=S)NCc4cccnc4)CC3)c2cc1F` [Compound 331, 4-(6,7-Difluoro-4-quinazolinyl)-N-(3-picolyl)-1-piperazinethiocarboxamide]: the melting point was 177 to 178 °C.

The molecule `COc1cc2ncnc(N3CCN(C(=O)Nc4ccccc4F)CC3)c2cc1OC` [Compound 34, 4-(6,7-Dimethoxy-4-quinazolinyl)-N-(2-fluorophenyl)-1-piperazinecarboxamide] had a melting point of 176 to 177 °C.

Molecule `COc1cc2ncnc(N3CCN(C(=O)Nc4ccc(C(F)(F)F)cc4)CC3)c2cc1OC` [Compound 23, 4-(6,7-Dimethoxy-4-quinazolinyl)-N-[4-(trifluoromethyl)phenyl]-1-piperazinecarboxamide] showed a melting point of 227 to 230 °C.

Consider `COc1cc2ncnc(N3CCN(C(=S)NCc4ccc(Cl)c(Cl)c4)CC3)c2cc1OC` [Compound 195, N-(3,4-Dichlorobenzyl)-4-(6,7-dimethoxy-4-quinazolinyl)-1-piperazinethiocarboxamide], for which the melting point fell in the range of 197 to 200 °C.

`COc1cc2c(N3CCN(C(=O)Nc4ccc(Oc5ccccc5)cc4)CC3)ncnc2c(OC)c1OC` [Compound 108, N-(4-Phenoxyphenyl)-4-(6,7,8-trimethoxy-4-quinazolinyl)-1-piperazinecarboxamide] displayed a melting point of 83 to 84 °C.

For the molecule `COc1cc2nc(N3CCOCC3)nc(N3CCN(C(=O)Nc4ccc(Oc5ccccc5)cc4)CC3)c2cc1OC` [Compound 393, 4-(6,7-Dimethoxy-2-morpholino-4-quinazolinyl)-N-(4-phenoxyphenyl)-1-piperazinecarboxamide], the melting point is 114 to 116 °C.

On to `COc1cc2ncnc(N3CCCN(C(=O)Nc4ccc([N+](=O)[O-])cc4)CC3)c2cc1OC` [Compound 112, 4-(6,7-Dimethoxy-4-quinazolinyl)-N-(4-nitrophenyl)-1-homopiperazinecarboxamide], for which the melting point was in the range of 243 to 244 °C.

Turning to `COc1cc2ncnc(N3CCN(C(=S)N[C@H](C)c4ccccc4)CC3)c2cc1OC` [Compound 130, (R)-4-(6,7-Dimethoxy-4-quinazolinyl)-N-(1-phenylethyl)-1-piperazinethiocarboxamide], the melting point was in the range of 99 to 101 °C.

For the molecule `O=C(Nc1ccc([N+](=O)[O-])cc1)N1CCN(c2ncnc3cc4ccccc4cc23)CC1` [Compound 364, 4-(4-Benzo[g]quinazolinyl)-N-(4-nitrophenyl)-1-piperazinecarboxamide], the melting point was 272 to 275 °C.

Take `COc1cc2ncnc(N3CCN(C(=O)Nc4cc(OC)c(OC)c(OC)c4)CC3)c2cc1OC` [Compound 212, 4-(6,7-Dimethoxy-4-quinazolinyl)-N-(3,4,5-trimethoxyphenyl)-1-piperazinecarboxamide]: the melting point lay in the range of 198 to 199 °C.

In turn, `COc1cc2ncnc(N3CCN(C(=O)Nc4ccc(Cl)cc4)CC3)c2cc1OC` [Compound 40, N-(4-Chlorophenyl)-4-(6,7-dimethoxy-4-quinazolinyl)-1-piperazinecarboxamide] had a melting point of 217 to 219 °C.

For `COc1cc2ncnc(N3CCN(C(=S)NCc4ccco4)CC3)c2cc1OC` [Compound 94, 4-(6,7-Dimethoxy-4-quinazolinyl)-N-furfuryl-1-piperazinethiocarboxamide], the melting point was 189 to 190 °C.

As to `COc1cc2ncnc(N3CCN(C(=O)Nc4ccc(N(C)C)cc4)CC3)c2cc1OC` [Compound 222, 4-(6,7-Dimethoxy-4-quinazolinyl)-N-(4-dimethylaminophenyl)-1-piperazinecarboxamide], the melting point lay within 252 to 254 °C.

Turning to `COc1cc2ncnc(N3CCN(C(=S)Nc4cccc(C(F)(F)F)c4)CC3)c2cc1OC` [Compound 163, 4-(6,7-Dimethoxy-4-quinazolinyl)-N-(3-trifluoromethylphenyl)-1-piperazinethiocarboxamide], the melting point is 171 to 172 °C.

The molecule `COc1cc(OC)c2ncnc(N3CCN(C(=S)NCc4cccnc4)CC3)c2c1` (as salt: hydrochloride) [Compound 382, 4-(6,8-Dimethoxy-4-quinazolinyl)-N-(3-picolyl)-1-piperazinethiocarboxamide] had a melting point of 164 to 167 °C.

Molecule `COc1cc2ncnc(N3CCN(C(=S)NCc4cccc(F)c4)CC3)c2cc1OC` [Compound 171, 4-(6,7-Dimethoxy-4-quinazolinyl)-N-(3-fluorobenzyl)-1-piperazinethiocarboxamide] returned a melting point of 100 to 102 °C.

As for `COc1cc2c(N3CCN(C(=O)Nc4ccc(C#N)cc4)CC3)ncnc2cc1C` [Compound 334, N-(4-Cyanophenyl)-4-(6-methoxy-7-methyl-4-quinazolinyl)-1-piperazinecarboxamide], the melting point lay within 242 to 243 °C.

Consider `O=C(Nc1ccc(Oc2ccccc2)cc1)N1CCN(c2ncnc3ccc([N+](=O)[O-])cc23)CC1` [Compound 311, 4-(6-Nitro-4-quinazolinyl)-N-(4-phenoxyphenyl)-1-piperazinecarboxamide], for which the melting point lay within 170 to 171 °C.

Regarding `COc1cc2ncnc(N3CCN(C(=O)Nc4ccc(F)cc4F)CC3)c2cc1OC` [Compound 50, N-(2,4-Difluorophenyl)-4-(6,7-dimethoxy-4-quinazolinyl)-1-piperazinecarboxamide], the melting point fell in the range of 174 to 175 °C.

As to `CCCCOC(=O)c1ccc(NC(=O)N2CCN(c3ncnc4cc(OC)c(OC)cc34)CC2)cc1` [Compound 90, N-(4-Butoxycarbonylphenyl)-4-(6,7-dimethoxy-4-quinazolinyl)-1-piperazinecarboxamide], the melting point is 226 to 227 °C.

`O=C(Nc1ccc(Oc2ccccc2)cc1)N1CCN(c2ccnc3ccccc23)CC1` [Compound 394, N-(4-Phenoxyphenyl)-4-(4-quinolyl)-1-piperazinecarboxamide]: the melting point lay within 145 to 146 °C.

`O=C(Nc1ccc([N+](=O)[O-])cc1)N1CCN(c2nc(-c3ccccc3)nc3ccccc23)CC1` [Compound 110, 4-(2-Phenyl-4-quinazolinyl)-N-(4-nitrophenyl)-1-piperazinecarboxamide] displayed a melting point of 236 to 238 °C.

Consider `COc1cc2ncnc(N3CCN(C(=S)NCc4ccncc4)CC3)c2cc1OC` [Compound 270, 4-(6,7-Dimethoxy-4-quinazolinyl)-N-(4-picolyl)-1-piperazinethiocarboxamide], for which the melting point is 236 to 239 °C.

Take `COc1cc2ncnc(N3CCN(C(=O)NCc4ccc(N(C)C)cc4)CC3)c2cc1OC` [Compound 223, 4-(6,7-Dimethoxy-4-quinazolinyl)-N-(4-dimethylaminobenzyl)-1-piperazinecarboxamide]: the melting point lay in the range of 188 to 190 °C.

Source of the values: patent US6472391B2, “Nitrogen-containing heterocyclic compounds” (Millennium Pharmaceuticals, Inc., priority 1996, dated 2002).
